Earlier results in patent US20080152709A1, “CLONIDINE COMPOSITION AND METHOD OF USE” (DRUGTECH CORPORATION, priority 2006, published 2008).
Structures can show the parent of a compound that is named as a salt. Where two headings read alike, the source gives them in different places.

How the values were obtained:
[1] = system: patients with morning hypertension; conditions: once daily in the evening, added to pre-existing antihypertensive regimen
[2] = not given; remark: listed apart in the source
[3] = oral administration of 0.3 mg
[4] = oral 0.075 mg twice daily for three days; third day
[5] = once daily oral 0.25 and 0.5 mg, sustained-release formulation
[6] = administered orally
[7] = not given; remark: listed apart in the source
[8] = single oral dose of 0.3 mg clonidine hydrochloride
[9] = single oral dose of 0.3 mg, all subjects

Row | peak clonidine concentration (Cmax) (single oral dose 0.075 mg) | plasma concentration 24 hours after administration (single oral dose 0.075 mg) | peak clonidine concentration (Cmax) (single oral dose 0.15 mg) | plasma concentration 24 hours after administration (single oral dose 0.15 mg) | peak clonidine concentration (Cmax) (single oral dose 0.25 mg) | plasma concentration 24 hours after administration (single oral dose 0.25 mg) | peak plasma clonidine concentration [3] | peak clonidine concentration [4] | absorption from the gastrointestinal tract [6] | mean maximum plasma concentration [7, 8] | time of mean maximum concentration after administration [7, 8] | plasma concentration at 24 hours ([7]; single oral dose of 0.3 mg clonidine hydrochloride, 24 hours) | salivary flow (dry mouth symptoms) [7, 9] | SMILES | morning blood pressure [1] | effect on diastolic blood pressure ([2]; 0.1 mg administered at 4 pm or 8 pm) | effect on diastolic blood pressure ([2]; 0.1 mg administered at 6 am or 12 noon) | 24-hour antihypertensive efficacy [5] | sedation [7, 9]
1 | 0.28 ng/mL | 0.06 ng/mL | 0.61 ng/mL | 0.07 ng/mL | 1.16 ng/mL | 0.34 ng/mL | 1.34 ng/mL | 0.39 ng/mL | almost completely absorbed |  |  |  |  | Clc1cccc(Cl)c1NC1=NCCN1 [clonidine, N-(2,6-dichlorophenyl)-4,5-dihydro-1H-imidazol-2-amine] | effective in reducing morning blood pressure | not | reduced diastolic blood pressure | Reduction in blood pressure was observed throughout the 24 hours | 
2 |  |  |  |  |  |  |  |  |  | 1.35 ng/mL | 1 h | below 0.5 ng/ml | marked reduction in salivary flow | Clc1cccc(Cl)c1N=C1NCCN1 [clonidine hydrochloride] |  |  |  |  | markedly sedated
